Laboratory results reported in patent US8030354B2, “Substituted biphenyl GPR40 modulators” (Amgen Inc., priority 2007, dated 2011).
pEC50: −log10 of the molar value.

Each compound was assayed against GPR40 (Homo sapiens, UniProt O14842) (assay: Cell-based aequorin assay (CHO cells stably expressing GPR40 and aequorin)). Conditions: activation of human GPR40, CHO cells, 0.01% HSA.
Parameters: expressed in transfected cells; host or cells: CHO cells stably transfected with GPR40 and aequorin
Experimental: Briefly, the Aequorin assays were performed on doubly stable CHO cells expressing GPR40 and Aequorin DNA. […] The luminescence was recorded over a period of 20 seconds with a Microlumat luminometer (Berthold). […] The inositol phosphate assay was performed on an A9 cell line stably transfected with GPR40 (A9_GPR40). The cells were incubated with different concentrations of compounds and [^3H] inositol accumulation was measured after 1 hour.
Cell-based aequorin assays were employed to characterize the modulatory activity of compounds on the GPR40 signaling pathway. In an exemplary assay, CHO cells were stably transfected with both GPR40 and Aequorin (Euroscreen). Cells were detached from the tissue culture dish with 2 mL of trypsin (0.25%(w/v)). Trypsinization was halted with 28 mL of Hanks Buffered Salt Solution containing 20 mM Hepes (H/HBSS) and 0.01% fatty acid-free human serum albumin (HSA). Coelantrazine is added to 1 ug/mL, and the cells were incubated for 2 hours at room temperature. Compounds were dissolved in DMSO for preparation of 10 mM stock solutions. Compounds were diluted in H/HBSS containing 0.01% HSA. Serial dilutions of the test compounds were prepared to determine dose response.
Aequorin luminescence measurements were made using an EG&G Berthold 96-well luminometer, and the response was measured over a 20 second interval after cells and compounds were mixed. The maximum relative light units was plotted to determine dose response. The EC50 (effective concentration to reach 50% maximal response) was determined from the dose response plot.

Sequence of GPR40 (O14842 whole entry): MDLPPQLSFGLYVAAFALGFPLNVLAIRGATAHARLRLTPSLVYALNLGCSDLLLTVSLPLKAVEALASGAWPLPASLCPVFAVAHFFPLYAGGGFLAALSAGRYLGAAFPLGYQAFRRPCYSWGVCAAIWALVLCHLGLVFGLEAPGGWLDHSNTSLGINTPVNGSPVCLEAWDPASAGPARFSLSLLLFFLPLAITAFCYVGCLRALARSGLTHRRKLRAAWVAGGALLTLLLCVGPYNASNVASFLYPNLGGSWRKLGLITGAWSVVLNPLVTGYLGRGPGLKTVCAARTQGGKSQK

Compound	pEC50
CSc1cccc(-c2ccc(COc3cccc([C@H](C)CC(=O)O)c3)cc2C(C)(C)C)c1 (single isomer, unassigned) [Example 3, (3R)-3-(3-(((2-(1,1-Dimethylethyl)-3′-(methylsulfanyl)-1,1′-biphenyl-4-yl)methyl)oxy)phenyl)butanoic acid or (3S)-3-(3-(((2-(1,1-dimethylethyl)-3′-(methylsulfanyl)-1,1′-biphenyl-4-yl)methyl)oxy)phenyl)butanoic acid]	5.00 to 6.00
COc1ccc(F)c(-c2ccc(COc3cccc([C@H](CC(=O)O)C4CC4)c3)cc2C(C)(C)C)c1 (single isomer, unassigned) [Example 10, (3R)-3-Cyclopropyl-3-(3-(((2-(1,1-dimethylethyl)-2′-fluoro-5′-(methyloxy)-1,1′-biphenyl-4-yl)methyl)oxy)phenyl)propanoic acid or (3S)-3-cyclopropyl-3-(3-(((2-(1,1-dimethylethyl)-2′-fluoro-5′-(methyloxy)-1,1′-biphenyl-4-yl)methyl)oxy)phenyl)propanoic acid]	5.00 to 6.00
CCCCOc1cc(COc2cccc([C@H](CC(=O)O)C3CC3)c2)ccc1-c1cc(OC)ccc1F (single isomer, unassigned) [Example 11, (3R)-3-(3-(((2-(Butyloxy)-2′-fluoro-5′-(methyloxy)-1,1′-biphenyl-4-yl)methyl)oxy)phenyl)-3-cyclopropylpropanoic acid or (3S)-3-(3-(((2-(butyloxy)-2′-fluoro-5′-(methyloxy)-1,1′-biphenyl-4-yl)methyl)oxy)phenyl)-3-cyclopropylpropanoic acid]	5.00 to 6.00
C=C[C@H](CC(=O)O)c1cccc(OCc2ccc(-c3cc(OC)ccc3F)c(C(C)(C)C)c2)c1 (single isomer, unassigned) [Example 15, (3S)-3-(3-(((2-(1,1-Dimethylethyl)-2′-fluoro-5′-(methyloxy)-1,1′-biphenyl-4-yl)methyl)oxy)phenyl)-4-pentenoic acid or (3R)-3-(3-(((2-(1,1-dimethylethyl)-2′-fluoro-5′-(methyloxy)-1,1′-biphenyl-4-yl)methyl)oxy)phenyl)-4-pentenoic acid]	5.00 to 6.00
C=C[C@H](CC(=O)O)c1cccc(OCc2ccc(-c3cc(OC)ccc3F)c(OCCCC)c2)c1 (single isomer, unassigned) [Example 16, (3S)-3-(3-(((2-(Butyloxy)-2′-fluoro-5′-(methyloxy)-1,1′-biphenyl-4-yl)methyl)oxy)phenyl)-4-pentenoic acid or (3R)-3-(3-(((2-(butyloxy)-2′-fluoro-5′-(methyloxy)-1,1′-biphenyl-4-yl)methyl)oxy)phenyl)-4-pentenoic acid]	5.00 to 6.00
C=CC(CC(=O)O)c1cccc(OCc2ccc(-c3cc(OC)ccc3F)c(C(C)(C)C)c2)c1 (single isomer, unassigned) [Example 19, (3R)-3-(3-(((2-(1,1-Dimethylethyl)-2′-fluoro-5′-(methyloxy)-1,1′-biphenyl-4-yl)methyl)oxy)phenyl)-4-pentenoic acid or (3S)-3-(3-(((2-(1,1-dimethylethyl)-2′-fluoro-5′-(methyloxy)-1,1′-biphenyl-4-yl)methyl)oxy)phenyl)-4-pentenoic acid]	5.00 to 6.00
CCCCOc1cc(COc2cccc([C@H](C)CC(=O)O)c2)ccc1-c1ccc(OC)cc1 (single isomer, unassigned) [Example 21, (3R)-3-(3-(((2-(Butyloxy)-4′-(methyloxy)-1,1′-biphenyl-4-yl)methyl)oxy)phenyl)butanoic acid or (3S)-3-(3-(((2-(butyloxy)-4′-(methyloxy)-1,1′-biphenyl-4-yl)methyl)oxy)phenyl)butanoic acid]	5.00 to 6.00
CCCCOc1cc(COc2cccc([C@H](C)CC(=O)O)c2)ccc1-c1cccc(OCC)c1 (single isomer, unassigned) [Example 22, (3R)-3-(3-(((2-(Butyloxy)-3′-(ethyloxy)-1,1′-biphenyl-4-yl)methyl)oxy)phenyl)butanoic acid or (3S)-3-(3-(((2-(butyloxy)-3′-(ethyloxy)-1,1′-biphenyl-4-yl)methyl)oxy)phenyl)butanoic acid]	5.00 to 6.00
CCCCOc1cc(COc2cccc([C@H](C)CC(=O)O)c2)ccc1-c1cc(OCC)ccc1F (single isomer, unassigned) [Example 23, (3R)-3-(3-(((2-(Butyloxy)-5′-(ethyloxy)-2′-fluoro-1,1′-biphenyl-4-yl)methyl)oxy)phenyl)butanoic acid or (3S)-3-(3-(((2-(butyloxy)-5′-(ethyloxy)-2′-fluoro-1,1′-biphenyl-4-yl)methyl)oxy)phenyl)butanoic acid]	5.00 to 6.00
CCCCOc1cc(COc2cccc([C@H](C)CC(=O)O)c2)ccc1-c1ccccc1F (single isomer, unassigned) [Example 24, (3R)-3-(3-(((2-(Butyloxy)-2′-fluoro-1,1′-biphenyl-4-yl)methyl)oxy)phenyl)butanoic acid or (3S)-3-(3-(((2-(butyloxy)-2′-fluoro-1,1′-biphenyl-4-yl)methyl)oxy)phenyl)butanoic acid]	5.00 to 6.00
CCCCOc1cc(COc2cccc([C@H](C)CC(=O)O)c2)ccc1-c1ccccc1OC (single isomer, unassigned) [Example 25, (3R)-3-(3-(((2-(Butyloxy)-2′-(methyloxy)-1,1′-biphenyl-4-yl)methyl)oxy)phenyl)butanoic acid or (3S)-3-(3-(((2-(butyloxy)-2′-(methyloxy)-1,1′-biphenyl-4-yl)methyl)oxy)phenyl)butanoic acid]	< 5.00
COc1ccc(F)c(-c2ccc(COc3cccc([C@H](C)CC(=O)O)c3)cc2OC2CCCCO2)c1 (single isomer, unassigned) [Example 26, (3R)-3-(3-(((2′-Fluoro-5′-(methyloxy)-2-(tetrahydro-2H-pyran-2-yloxy)-1,1′-biphenyl-4-yl)methyl)oxy)phenyl)butanoic acid or (3S)-3-(3-(((2′-fluoro-5′-(methyloxy)-2-(tetrahydro-2H-pyran-2-yloxy)-1,1′-biphenyl-4-yl)methyl)oxy)phenyl)butanoic acid]	6.00 to 7.00
CCCOc1cc(COc2cccc([C@H](C)CC(=O)O)c2)ccc1-c1cc(OC)ccc1F (single isomer, unassigned) [Example 27, (3R)-3-(3-(((2′-Fluoro-5′-(methyloxy)-2-(propyloxy)-1,1′-biphenyl-4-yl)methyl)oxy)phenyl)butanoic acid or (3S)-3-(3-(((2′-fluoro-5′-(methyloxy)-2-(propyloxy)-1,1′-biphenyl-4-yl)methyl)oxy)phenyl)butanoic acid]	5.00 to 6.00
CCCCCOc1cc(COc2cccc([C@H](C)CC(=O)O)c2)ccc1-c1cc(OC)ccc1F (single isomer, unassigned) [Example 28, (3R)-3-(3-(((2′-Fluoro-5′-(methyloxy)-2-(pentyloxy)-1,1′-biphenyl-4-yl)methyl)oxy)phenyl)butanoic acid or (3S)-3-(3-(((2′-fluoro-5′-(methyloxy)-2-(pentyloxy)-1,1′-biphenyl-4-yl)methyl)oxy)phenyl)butanoic acid]	6.00 to 7.00
COc1ccc(F)c(-c2ccc(COc3cccc([C@H](C)CC(=O)O)c3)cc2OCC(C)C)c1 (single isomer, unassigned) [Example 29, (3R)-3-(3-(((2′-Fluoro-5′-(methyloxy)-2-((2-methylpropyl)oxy)-1,1′-biphenyl-4-yl)methyl)oxy)phenyl)butanoic acid or (3S)-3-(3-(((2′-fluoro-5′-(methyloxy)-2-((2-methylpropyl)oxy)-1,1′-biphenyl-4-yl)methyl)oxy)phenyl)butanoic acid]	6.00 to 7.00
COc1ccc(F)c(-c2ccc(COc3cccc([C@H](C)CC(=O)O)c3)cc2OCc2ccccc2)c1 (single isomer, unassigned) [Example 30, (3R)-3-(3-(((2′-Fluoro-5′-(methyloxy)-2-((phenylmethyl)oxy)-1,1′-biphenyl-4-yl)methyl)oxy)phenyl)butanoic acid or (3S)-3-(3-(((2′-fluoro-5′-(methyloxy)-2-((phenylmethyl)oxy)-1,1′-biphenyl-4-yl)methyl)oxy)phenyl)butanoic acid]	5.00 to 6.00
COc1ccc(F)c(-c2ccc(COc3cccc([C@H](C)CC(=O)O)c3)cc2OC(C)C)c1 (single isomer, unassigned) [Example 31, (3R)-3-(3-(((2′-Fluoro-2-((1-methylethyl)oxy)-5′-(methyloxy)-1,1′-biphenyl-4-yl)methyl)oxy)phenyl)butanoic acid or (3S)-3-(3-(((2′-fluoro-2-((1-methylethyl)oxy)-5′-(methyloxy)-1,1′-biphenyl-4-yl)methyl)oxy)phenyl)butanoic acid]	6.00 to 7.00
COc1ccc(F)c(-c2ccc(COc3cccc([C@H](C)CC(=O)O)c3)cc2OC2CCCC2)c1 (single isomer, unassigned) [Example 32, (3R)-3-(3-(((2-(Cyclopentyloxy)-2′-fluoro-5′-(methyloxy)-1,1′-biphenyl-4-yl)methyl)oxy)phenyl)butanoic acid or (3S)-3-(3-(((2-(cyclopentyloxy)-2′-fluoro-5′-(methyloxy)-1,1′-biphenyl-4-yl)methyl)oxy)phenyl)butanoic acid]	6.00 to 7.00
